Here are results for 30 molecules from patent publication US20160159814A1, “GLYCINE TRANSPORTER INHIBITOR” (TAISHO PHARMACEUTICAL CO., LTD., priority 2013, published 2016).

In general, IC50 refers to the point on the concentration scale where inhibition reaches its midpoint. Low values mean inhibition by little substance, high ones a need for much substance.

For the first assay, the target named is T1, human type 1 glycine transporter (GlyT1) (Homo sapiens, UniProt P48067).
T1 construct: T98G cells (glioma cells) expressing human type 1 glycine transporter (GlyT1) were used; endogenous in cells; host or cells: T98G cells (human glioma cells)
T1 sequence (P48067 1-706): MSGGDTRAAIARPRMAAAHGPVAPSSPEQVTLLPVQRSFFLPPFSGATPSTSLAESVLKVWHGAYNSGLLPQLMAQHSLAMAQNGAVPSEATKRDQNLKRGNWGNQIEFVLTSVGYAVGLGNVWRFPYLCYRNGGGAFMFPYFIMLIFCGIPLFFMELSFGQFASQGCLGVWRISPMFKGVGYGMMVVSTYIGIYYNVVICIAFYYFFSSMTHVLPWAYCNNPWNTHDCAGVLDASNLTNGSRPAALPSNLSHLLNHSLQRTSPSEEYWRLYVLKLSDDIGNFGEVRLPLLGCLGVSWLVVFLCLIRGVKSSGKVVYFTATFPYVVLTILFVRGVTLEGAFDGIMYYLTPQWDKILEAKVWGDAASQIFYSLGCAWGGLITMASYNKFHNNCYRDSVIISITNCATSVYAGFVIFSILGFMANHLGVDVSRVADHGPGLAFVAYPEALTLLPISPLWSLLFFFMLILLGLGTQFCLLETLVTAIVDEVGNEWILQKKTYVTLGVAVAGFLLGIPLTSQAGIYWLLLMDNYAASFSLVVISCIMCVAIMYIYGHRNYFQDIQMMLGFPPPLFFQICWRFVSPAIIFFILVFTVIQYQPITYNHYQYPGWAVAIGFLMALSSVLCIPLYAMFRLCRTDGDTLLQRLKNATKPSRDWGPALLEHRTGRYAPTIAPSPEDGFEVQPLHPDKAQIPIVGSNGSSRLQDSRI
In words: Glycine uptake inhibition experiment ([3H] glycine uptake in T98G cells expressing GlyT1). In kind it is cell-based.
Conditions: not given
The essentials: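 T98G glioma cells expressing human GlyT1 were pretreated 10 min with compound in HEPES buffer pH 7.4 (0.2% BSA), then incubated with compound plus 250 nM final [3H]glycine for 15 min at room temperature. Intracellular radioactivity was counted after NaOH lysis; 10 μM ALX5407 defined non-specific uptake. IC50 came from 10^−9–10^−5 M curves.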
`CC(O)c1c(F)ccc2c1C(F)(F)C(=O)N2Cc1ccnc(C#N)c1` (single isomer, unassigned) [Compound 182, 4-{[3,3,5-trifluoro-4-(1-hydroxyethyl)-2-oxo-2,3-dihydro-1H-indol-1-yl]methyl}pyridine-2-carbonitrile] showed an IC50 of 1700 nM.

`O=C1N(Cc2ccc(F)c(Br)n2)c2cccc(C(O)C(F)F)c2C1(F)F` (single isomer, unassigned) [Compound 274, 1-[(6-bromo-5-fluoropyridin-2-yl)methyl]-4-(2,2-difluoro-1-hydroxyethyl)-3,3-difluoro-1,3-dihydro-2H-indol-2-one] displayed an IC50 of 4.6 nM.

Molecule `C[C@H](O)c1cccc2c1C(F)(F)C(=O)N2Cc1cc(OC(F)F)ccn1` [Compound 245, 1-{[4-(difluoromethoxy)pyridin-2-yl]methyl}-3,3-difluoro-4-[(1S)-1-hydroxyethyl]-1,3-dihydro-2H-indol-2-one] had an IC50 of 110 nM.

In the case of `C[C@H](O)c1cccc2c1C(F)(F)C(=O)N2Cc1ccc(F)c(Cl)n1` [Compound 237, 1-[(6-chloro-5-fluoropyridin-2-yl)methyl]-3,3-difluoro-4-[(1S)-1-hydroxyethyl]-1,3-dihydro-2H-indol-2-one], the IC50 was 2.9 nM.

`CCOc1ccc(CN2C(=O)C(F)(F)c3c([C@H](C)O)cccc32)cn1` [Compound 241, 1-[(6-ethoxypyridin-3-yl)methyl]-3,3-difluoro-4-[(1S)-1-hydroxyethyl]-1,3-dihydro-2H-indol-2-one] came in with an IC50 of 66 nM.

The molecule `C[C@H](O)c1cccc2c1C(F)(F)C(=O)N2Cc1ccc(Cl)nc1Cl` [Compound 224, 1-[(2,6-dichloropyridin-3-yl)methyl]-3,3-difluoro-4-[(1S)-1-hydroxyethyl]-1,3-dihydro-2H-indol-2-one] returned an IC50 of 740 nM.

Molecule `C[C@H](O)c1cccc2c1C(F)(F)C(=O)N2Cc1ccc(C2CC2)nc1` [Compound 198, 1-[(6-cyclopropylpyridin-3-yl)methyl]-3,3-difluoro-4-[(1S)-1-hydroxyethyl]-1,3-dihydro-2H-indol-2-one] gave an IC50 of 160 nM.

For `O=C1N(Cc2ccnc(OC(F)F)c2)c2cccc(C(O)C(F)F)c2C1(F)F` (single isomer, unassigned) [Compound 218, 4-(2,2-difluoro-1-hydroxyethyl)-1-{[2-(difluoromethoxy)pyridin-4-yl]methyl}-3,3-difluoro-1,3-dihydro-2H-indol-2-one], the IC50 turned out to be 10 nM.

Molecule `O=C1N(Cc2ccc(C(F)(F)F)cn2)c2cccc(C(O)C(F)F)c2C1(F)F` (single isomer, unassigned) [Compound 169] gave an IC50 of 56 nM.

Take `CC(O)c1c(F)ccc2c1C(F)(F)C(=O)N2Cc1cncc(Cl)c1` (single isomer, unassigned) [Compound 183, 1-[(5-chloropyridin-3-yl)methyl]-3,3,5-trifluoro-4-(1-hydroxyethyl)-1,3-dihydro-2H-indol-2-one]: the IC50 worked out at 6.7 nM.

Consider `C[C@H](O)c1cccc2c1C(F)(F)C(=O)N2Cc1ccc(Cl)nn1` [Compound 204, 1-[(6-chloropyridazin-3-yl)methyl]-3,3-difluoro-4-[(1S)-1-hydroxyethyl]-1,3-dihydro-2H-indol-2-one], for which the IC50 came out at 110 nM.

As for `O=C1N(Cc2ccc(C(F)(F)F)nc2)c2cccc(C(O)C(F)F)c2C1(F)F` (single isomer, unassigned) [Compound 161, 4-(2,2-difluoro-1-hydroxyethyl)-3,3-difluoro-1-{[6-(trifluoromethyl)pyridin-3-yl]methyl}-1,3-dihydro-2H-indol-2-one], the midpoint of inhibition, the IC50, lay at 90 nM.

As for `O=C1N(Cc2cncc(Cl)c2)c2c(F)ccc(C(O)C(F)F)c2C1(F)F` (single isomer, unassigned) [Compound 253, 1-[(5-chloropyridin-3-yl)methyl]-4-(2,2-difluoro-1-hydroxyethyl)-3,3,7-trifluoro-1,3-dihydro-2H-indol-2-one], half-maximal inhibition (IC50) was put at 47 nM.

For the molecule `COc1nc(CN2C(=O)C(F)(F)c3c([C@H](C)O)cccc32)ccc1Cl` [Compound 249, 1-[(5-chloro-6-methoxypyridin-2-yl)methyl]-3,3-difluoro-4-[(1S)-1-hydroxyethyl]-1,3-dihydro-2H-indol-2-one], the IC50 turned out to be 58 nM.

Still in this assay, the particulars now being: glycine uptake inhibition.
In the case of `C[C@H](O)c1cccc2c1C(F)(F)C(=O)N2Cc1ccc(C(F)(F)F)nc1` [Compound 118, 3,3-difluoro-4-[(1S)-1-hydroxyethyl]-1-{[6-(trifluoromethyl)pyridin-3-yl]methyl}-1,3-dihydro-2H-indol-2-one], the midpoint of inhibition, the IC50, lay at 27 nM.

For the molecule `C[C@H](O)c1cccc2c1C(F)(F)C(=O)N2Cc1nc2ccccc2o1` [Compound 81, 1-(1,3-benzoxazol-2-ylmethyl)-3,3-difluoro-4-[(1S)-1-hydroxyethyl]-1,3-dihydro-2H-indol-2-one], it took 30 nM to reach half-maximal inhibition (IC50).

`C[C@H](O)c1cccc2c1C(F)(F)C(=O)N2Cc1cncc(-n2nccn2)c1` [Compound 84, 3,3-difluoro-4-[(1S)-1-hydroxyethyl]-1-{[5-(2H-1,2,3-triazol-2-yl)pyridin-3-yl]methyl}-1,3-dihydro-2H-indol-2-one] had an IC50 of 35 nM.

In turn, `C[C@H](O)c1cccc2c1C(F)(F)C(=O)N2Cc1cncc(C(F)(F)F)c1` [Compound 121] registered an IC50 of 39 nM.

Turning to `O=C1N(Cc2cccc(Cl)n2)c2cccc(C(O)C(F)F)c2C1(F)F` (stereo not drawn) [Compound 10, 1-[(6-chloropyridin-2-yl)methyl]-4-(2,2-difluoro-1-hydroxyethyl)-3,3-difluoro-1,3-dihydro-2H-indol-2-one], the half-maximal inhibitory concentration (IC50) came to 27 nM.

`C[C@H](O)c1cccc2c1C(F)(F)C(=O)N2Cc1ccc2nccnc2c1` [Compound 46, 3,3-difluoro-4-[(1S)-1-hydroxyethyl]-1-(quinoxalin-6-ylmethyl)-1,3-dihydro-2H-indol-2-one]: the IC50 is 140 nM. Against the preceding molecule, the IC50 is about 5.2-fold higher.

With `C[C@H](O)c1cccc2c1C(F)(F)C(=O)N2Cc1ccc2ncoc2c1` [Compound 127, 1-(1,3-benzoxazol-6-ylmethyl)-3,3-difluoro-4-[(1S)-1-hydroxyethyl]-1,3-dihydro-2H-indol-2-one], the IC50 was found to be 29 nM.

As to `C[C@H](O)c1c(Cl)ccc2c1C(F)(F)C(=O)N2Cc1cncc(Cl)c1` [Compound 90, 5-chloro-1-[(5-chloropyridin-3-yl)methyl]-3,3-difluoro-4-[(1S)-1-hydroxyethyl]-1,3-dihydro-2H-indol-2-one], the IC50 is 46 nM.

On to `C[C@H](O)c1cccc2c1C(F)(F)C(=O)N2Cc1nc2cc(F)ccc2c(=O)n1C` [Compound 132, 2-({3,3-difluoro-4-[(1S)-1-hydroxyethyl]-2-oxo-2,3-dihydro-1H-indol-1-yl}methyl)-7-fluoro-3-methylquinazolin-4(3H)-one], for which the IC50 came out at 18 nM. This IC50 is about 2.6-fold lower than that of the molecule before.

With `C[C@H](O)c1cccc2c1C(F)(F)C(=O)N2Cc1cncc(-n2ccnn2)c1` [Compound 87, 3,3-difluoro-4-[(1S)-1-hydroxyethyl]-1-{[5-(1H-1,2,3-triazol-1-yl)pyridin-3-yl]methyl}-1,3-dihydro-2H-indol-2-one], it took 1500 nM to reach half-maximal inhibition (IC50).

The molecule `C[C@H](O)c1cccc2c1C(F)(F)C(=O)N2Cc1cncc(F)c1` [Compound 63, 3,3-difluoro-1-[(5-fluoropyridin-3-yl)methyl]-4-[(1S)-1-hydroxyethyl]-1,3-dihydro-2H-indol-2-one] displayed an IC50 of 76 nM.

The molecule `CC(C)(O)c1cccc2c1C(F)(F)C(=O)N2Cc1cccc(Cl)n1` [Compound 12, 1-[(6-chloropyridin-2-yl)methyl]-3,3-difluoro-4-(2-hydroxypropan-2-yl)-1,3-dihydro-2H-indol-2-one] had an IC50 of 700 nM. This IC50 is about 9.2-fold higher than that of the molecule before.

`C[C@H](O)c1cccc2c1C(F)(F)C(=O)N2Cc1cccc(C(F)F)n1` [Compound 82, 1-{[6-(difluoromethyl)pyridin-2-yl]methyl}-3,3-difluoro-4-[(1S)-1-hydroxyethyl]-1,3-dihydro-2H-indol-2-one] showed a half-inhibitory concentration (IC50) of 44 nM.

`O=C1N(Cc2cnc3ccccc3c2)c2cccc([C@@H](O)C(F)(F)F)c2C1(F)F` [Compound 133, 3,3-difluoro-1-(quinolin-3-ylmethyl)-4-[(1R)-2,2,2-trifluoro-1-hydroxyethyl]-1,3-dihydro-2H-indol-2-one] yielded an IC50 of 62 nM.

Staying with this assay, now noted: table section whose head prints (μm).
`O=C1N(Cc2cc(Cl)c(F)cn2)c2cccc(C(O)C(F)F)c2C1(F)F` (single isomer, unassigned) [Compound 266, 1-[(4-chloro-5-fluoropyridin-2-yl)methyl]-4-(2,2-difluoro-1-hydroxyethyl)-3,3-difluoro-1,3-dihydro-2H-indol-2-one] registered a half-inhibitory concentration (IC50) of 21 nM.

`N#Cc1cc(CN2C(=O)C(F)(F)c3c(C(O)C(F)F)cccc32)cc(Cl)n1` (single isomer, unassigned) [Compound 264, 6-chloro-4-{[4-(2,2-difluoro-1-hydroxyethyl)-3,3-difluoro-2-oxo-2,3-dihydro-1H-indol-1-yl]methyl}pyridine-2-carbonitrile] had an IC50 of 170 nM.
